Results on 40 compounds are retold here after patent USRE37556E1, “Superoxide radical inhibitor” (Otsuka Pharmaceutical Co., Ltd., priority 1990, dated 2002).

Where a name gives a salt, the structure may show the parent alone.

In this experiment the test system is human neutrophilic leukocytes. Description: Inhibition of superoxide radical (O2-) generation in FMLP-stimulated human neutrophilic leukocytes (ferricytochrome C method). The class given is cell-based. From the text:
(1) Activity for inhibiting the generation of superoxide radical (O2^−) in human neutrophilic leukocytes
That is, a whole blood obtained from a healthy adult and treated by anticoagulation method was subjected to a dextranhypotonic treatment to obtain leukocyte cells. The leukocyte cells were then subjected to a density gradient ultracentrifugation by Ficoll-Paque to obtain a neutrophilic leukocyte fraction.
O2^− generation was examined by the ferricytochrome C method in accordance with the method of B. N. Cronstein et al. [Journal of Experimental Medicine, vol. […] Each test compound was dissolved in dimethyl sulfoxide (DMSO); the solution was added to neutrophilic leukocytes before the addition of FMLP; then, the neutrophilic leukocytes were pre-incubated at 37° C.

The mark [1] stands for this setting: Homo sapiens, Leukocyte, pH 7.4, Table 15, O2- generation, 3x10^-7 M FMLP, cytochalasin B, 37° C., pH 7.4.
Setting [2] is: Table 15, O2- generation, 3x10^-7 M FMLP, cytochalasin B, 37° C., pH 7.4.
Where [3] appears, read: Homo sapiens, Leukocyte, Table 16, comparative test present compounds vs prior art compounds, NE = not effective.

One may read the IC50 as the midpoint of a concentration-inhibition curve. A higher IC50 goes with a need for much substance. Compound `COc1ccc(-c2nc(-c3ccc4[nH]c(=O)oc4c3)cs2)cc1OC` [compound 55, 2-(3,4-Dimethoxyphenyl)-4-(2-oxobenzoxazol-6-yl)thiazole] yielded an IC50 under setting [1] of 70 nM.

`Fc1ccc(-c2csc(-c3cccnc3)n2)cc1.Fc1ccc(-c2csc(-c3cccnc3)n2)cc1.Fc1ccc(-c2csc(-c3cccnc3)n2)cc1.[Cl][Fe][Cl]` [compound 56, 2-(3-Pyridyl)-4-(4-fluorophenyl)thiazole-⅓ FeCl2 salt] had an IC50 under setting [2] of 1000 nM.

`COc1ccc(-c2nc(-c3ccc4[nH]c(=O)c(=O)[nH]c4c3)cs2)cc1OC` [compound 57, 2-(3,4-Dimethoxyphenyl)-4-(2,3-dioxo-1,2,3,4-tetrahydro-quinoxalin-6-yl)thiazole] showed an IC50 under setting [1] of 300 nM.

In turn, `COc1ccc(C(=O)c2nc(-c3ccc4c(c3)CCC(=O)N4)cs2)cc1OC` [compound 58, 2-(3,4-Dimethoxybenzoyl)-4-(3,4-dihydrocarbostyril-6-yl)thiazole] showed an IC50 under setting [1] of 1000 nM.

As for `CCOc1ccc(-c2nc(-c3ccc4c(c3)CCC(=O)N4)cs2)cc1OCC` [compound 59, 2-(3,4-Diethoxyphenyl)-4-(3,4-dihydrocarbostyril-6-yl)thiazole], the concentration for half-maximal inhibition (IC50) under setting [1] was found to be 80 nM.

Under setting [1], `COc1ccc(-c2nc(-c3ccccn3)cs2)cc1OC` [compound 60, 2-(3,4-Dimethoxyphenyl)-4-(2-pyridyl)thiazole hydrochloride] showed an IC50 of 50 nM.

As for `CCOc1ccc(-c2nc(-c3cc(O)cc(O)c3)cs2)cc1OCC` [compound 61, 4-(3,5-Dihydroxyphenyl)-2-(3,4-diethoxyphenyl)-thiazole], the IC50 under setting [1] was 3 nM.

Under setting [1], `COc1ccc(-c2nc(-c3ccc(OS(=O)(=O)O)cc3)cs2)cc1OC` [compound 63, 4-(4-Hydroxysulfonyloxyphenyl)-2-(3,4-dimethoxyphenyl)thiazole] registered a half-maximal inhibitory concentration (IC50) of 30 nM.

On to `CCOc1ccc(-c2nc(-c3ccc(O)cc3)cs2)cc1OCC` [compound 64, 4-(4-Hydroxyphenyl)-2-(3,4-diethoxyphenyl)thiazole], for which the 50% inhibitory concentration (IC50) under setting [1] is 40 nM.

Turning to `CCOc1ccc(-c2nc(-c3ccc(O)c(NC(C)=O)c3)cs2)cc1OCC` [compound 65, 4-(3-Acetylamino-4-hydroxyphenyl)-2-(3,4-diethoxyphenyl)thiazole], under setting [1], half-maximal inhibition (IC50) required 60 nM.

Consider `CCOc1ccc(-c2nc(-c3ccc(O)c(N)c3)cs2)cc1OCC` [compound 66, 4-(4-Hydroxy-3-aminophenyl)-2-(3,4-diethoxyphenyl)thiazole dihydrochloride], for which it took 60 nM to reach half-maximal inhibition under setting [1] (IC50).

Regarding `CCOc1ccc(-c2nc(-c3ccc(C#N)cc3)cs2)cc1OCC` [compound 67, 4-(4-Cyanophenyl)-2-(3,4-diethoxyphenyl)thiazole], the 50% inhibitory concentration (IC50) under setting [1] is 70 nM.

For `CCCOc1cc(-c2nc(-c3ccc4c(c3)CCC(=O)N4)cs2)ccc1OC` [compound 68, 4-(3,4-Dihydrocarbostyril-6-yl)-2-(4-methoxy-3-propoxy-phenyl)thiazole], the 50% inhibitory concentration (IC50) under setting [1] turned out to be 80 nM.

Under setting [1], `CCOc1ccc(-c2nc(-c3ccc(C(=N)N)cc3)cs2)cc1OCC` [compound 69, 4-(4-Amidinophenyl)-2-(3,4-diethoxyphenyl)thiazole hydrochloride] returned a 50% inhibitory concentration (IC50) of 100 nM.

As for `COc1ccc(-c2nc(-c3c(O)cc(O)cc3O)cs2)cc1OC` [compound 70, 4-(2,4,6-Trihydroxyphenyl)-2-(3,4-dimethoxyphenyl) thiazole], 200 nM corresponded to half-maximal inhibition under setting [1] (IC50).

The compound `COc1ccc(-c2nc(-c3cc(N)cc(N)c3)cs2)cc1OC` [compound 71, 4-(3,5-Diaminophenyl)-2-(3,4-dimethoxyphenyl) thiazole dihydrochloride] registered an IC50 under setting [1] of 200 nM.

Take `CCOc1ccc(-c2nc(-c3ccc(N)cc3)cs2)cc1OCC` [compound 72, 4-(4-Aminophenyl)-2-(3,4-diethoxyphenyl)thiazole hydrochloride]: the half-maximal inhibitory concentration (IC50) under setting [1] was found to be 200 nM.

In turn, `CCOc1ccc(-c2nc(C(O)c3ccc(OC)c(OC)c3)cs2)cc1OCC` (stereo not shown) [compound 73, 4-[1-Hydroxy-1-(3,4-dimethoxyphenyl)methyl]-2-(3,4-diethoxyphenyl)thiazole] registered an IC50 under setting [1] of 200 nM.

Take `CCN1CCN(c2cc(-c3csc(-c4ccc(O)c(O)c4)n3)ccc2OC)CC1` [compound 74, 4-[4-Methoxy-3-(4-ethyl-1-piperazinyl)phenyl]-2-(3,4-dihydroxyphenyl)thiazole trihydrochloride]: under setting [1], the 50% inhibitory concentration (IC50) stood at 300 nM.

The compound `CCOc1ccc(-c2nc(-c3ccc(Cl)cc3)cs2)cc1OCC` [compound 75, 4-(4-Chlorophenyl)-2-(3,4-diethoxyphenyl)thiazole] came in with a half-maximal inhibitory concentration (IC50) under setting [1] of 600 nM.

Regarding `CC(=O)Oc1ccc(-c2csc(-c3cccnc3)n2)cc1OC(C)=O` [compound 76, 4-(3,4-Diacetyloxyphenyl)-2-(3-pyridyl)thiazole], the IC50 under setting [1] is 600 nM.

`COC(=O)C1OC(Oc2ccc(-c3csc(-c4ccc(OC)c(OC)c4)n3)cc2)C(O)C(O)C1O` [compound 77, Methyl 4-[2-(3,4-dimethoxyphenyl)thiazole-4-yl]phenyl-β-D-glucopyranosidouronate] showed a 50% inhibitory concentration (IC50) under setting [2] of 800 nM.

Take `CCOc1ccc(-c2nc(-c3ccc(O[C@@H]4O[C@H](COC(C)=O)[C@@H](OC(C)=O)[C@H](OC(C)=O)[C@H]4OC(C)=O)cc3)cs2)cc1OCC` [compound 78, 2-(3,4-Diethoxyphenyl)-4-[4-(2,3,4,6-tetra-0-acetyl-β-D-glucopyranosyloxy)phenyl]thiazole]: under setting [2], the midpoint of inhibition, the IC50, lay at 1000 nM.

Under setting [1], `CCOc1ccc(-c2nc(-c3cc(OC(C)=O)cc(OC(C)=O)c3)cs2)cc1OCC` [compound 79, 4-(3,5-Diacetyloxyphenyl)-2-(3,4-diethoxyphenyl) thiazole] registered an IC50 of 1.3 nM.

As to `CCOc1ccc(-c2nc(-c3ccc(O)c(C(=O)OC)c3)cs2)cc1OCC` [compound 80, 4-(4-Hydroxy-3-methoxycarbonylphenyl)-2-(3,4-diethoxyphenyl)thiazole], under setting [1], the midpoint of inhibition, the IC50, lay at 10 nM.

Under setting [1], `CCOc1ccc(-c2nc(-c3ccc(OCC(=O)OC)c(C(=O)OC)c3)cs2)cc1OCC` [compound 81, 4-(4-Methoxycarbonylmethoxy-3-methoxycarbonylphenyl)-2-(3,4-diethoxyphenyl)thiazole] displayed an IC50 of 26 nM.

For `C=CCc1cc(-c2csc(-c3ccc(OCC)c(OCC)c3)n2)cc(C(=O)O)c1O` [compound 83, 4-(3-Carboxy-4-hydroxy-5-allylphenyl)-2-(3,4-diethoxyphenyl)thiazole], under setting [1], the midpoint of inhibition, the IC50, lay at 40 nM.

For `C=C(C)Cc1cc(-c2csc(-c3ccc(OCC)c(OCC)c3)n2)cc(C(=O)O)c1O` [compound 84, 4-{3-Carboxy-4-hydroxy-5-(2-methyl-2-propenyl)-phenyl}-2-(3,4-diethoxyphenyl)thiazole], under setting [1], the concentration for half-maximal inhibition (IC50) amounted to 20 nM.

Under setting [1], `CCOc1ccc(-c2nc(-c3cc(C)c(O)c(C(=O)O)c3)cs2)cc1OCC` [compound 85, 4-(3-Carboxy-4-hydroxy-5-methylphenyl)-2-(3,4-diethoxyphenyl)thiazole] returned an IC50 of 80 nM.

In turn, `CCOc1ccc(-c2nc(-c3ccc(O)c(C(=O)OC)c3)cs2)cc1OC` [compound 86, 4-(3-Methoxycarbonyl-4-hydroxyphenyl)-2-(3-methoxy-4-ethoxyphenyl)thiazole] yielded an IC50 under setting [1] of 33 nM.

On to `CCOc1ccc(-c2nc(-c3cccc(C(=O)O)c3)cs2)cc1OCC` [compound 87, 4-(3-Carboxyphenyl)-2-(3,4-diethoxyphenyl)thiazole], for which the 50% inhibitory concentration (IC50) by setting is: under setting [3], 4.8 nM; under setting [1], 4.8 nM.

Turning to `CCOc1ccc(-c2nc(-c3ccc(O)c(C(=O)O)c3)cs2)cc1OC` [compound 88, 4-(3-Carboxy-4-hydroxyphenyl)-2-(3-methoxy-4-ethoxyphenyl)thiazole], the half-inhibitory concentration (IC50) by setting is: under setting [3], 100 nM; under setting [1], 100 nM.

Compound `CCOc1ccc(-c2nc(-c3cc(N)c(O)c(C(=O)OC)c3)cs2)cc1OCC` [compound 89, 4-(3-Amino-4-hydroxy-5-methoxycarbonylphenyl)-2-(3,4-diethoxyphenyl)thiazole] had an IC50 under setting [1] of 7 nM.

On to `CCCc1cc(-c2csc(-c3ccc(OCC)c(OCC)c3)n2)cc(C(=O)O)c1O` [compound 90], for which, under setting [2], the concentration for half-maximal inhibition (IC50) came to 8 nM.

As to `CCOc1ccc(-c2nc(-c3cc(C(=O)O)ccc3O)cs2)cc1OCC` [compound 91, 4-(3-Carboxy-6-hydroxyphenyl)-2-(3,4-diethoxyphenyl)thiazole], the concentration for half-maximal inhibition (IC50) reads like this: under setting [3], 23 nM; under setting [1], 23 nM.

In turn, `CCOc1cc(-c2nc(-c3ccc(O)c(C(=O)O)c3)cs2)ccc1OC` [compound 92, 4-(3-Carboxy-4-hydroxyphenyl)-2-(3-ethoxy-4-methoxyphenyl)thiazole] registered a 50% inhibitory concentration (IC50) under setting [3] of 20 nM.

`CCOc1ccc(-c2nc(-c3cc(CC(C)C)c(O)c(C(=O)O)c3)cs2)cc1OCC` [compound 93, 4-(3-Carboxy-4-hydroxy-5-isobutylphenyl)-2-(3,4-diethoxyphenyl)thiazole] showed a half-maximal inhibitory concentration (IC50) under setting [1] of 12 nM.

In the case of `CCOc1ccc(-c2nc(-c3cc(C(=O)O)c(N)cc3O)cs2)cc1OCC` [compound 95, 4-(3-Carboxy-4-amino-6-hydroxyphenyl)-2-(3,4-diethoxyphenyl)thiazole], it took 8.7 nM to reach half-maximal inhibition under setting [1] (IC50).

The compound `CCOc1ccc(-c2nc(-c3ccc(N)c(C(=O)O)c3)cs2)cc1OCC` [compound 96, 4-(3-Carboxy-4-aminophenyl)-2-(3,4-diethoxyphenyl)-thiazole] returned an IC50 under setting [1] of 23 nM.

On to `CCOc1ccc(C2(c3ccc(OCC)c(OCC)c3)NC(c3ccc(OC(C)=O)c(C(=O)O)c3)=CS2)cc1OCC` [compound 97, 4-(3-Carboxy-4-acetyloxyphenyl)-2-(3,4-diethoxyphenyl)-2-(3,4-diethoxyphenyl)thiazole], for which the IC50 under setting [1] came to 100 nM.
